Source: PubChem BioAssay (NCI)
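Test compounds were applied to cells in 96-well plates for 48 hours at 5 doses. TGI is the concentration that stops growth completely.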 Where a SMILES comes first, the peptide text is derived from it. The star is where a group is joined. Boc = CC(C)(C)OC(=O)*

Columns and labels:
Test in all cases: inhibition of tumour cell growth, NCI panel, 48 h
DU-145 prostate = test system: DU-145 prostate
HCT-116 colon = test system: HCT-116 colon
HCT-15 colon = test system: HCT-15 colon
IGROV1 ovarian = test system: IGROV1 ovarian
KM12 colon = test system: KM12 colon
MCF7 breast = test system: MCF7 breast
NCI-H226 lung = test system: NCI-H226 lung
OVCAR-3 ovarian = test system: OVCAR-3 ovarian
RXF 393 renal = test system: RXF 393 renal
SNB-75 CNS = test system: SNB-75 CNS

SMILES | TGI (DU-145 prostate) [µM] | TGI (HCT-116 colon) [µM] | TGI (HCT-15 colon) [µM] | TGI (IGROV1 ovarian) [µM] | TGI (KM12 colon) [µM] | TGI (MCF7 breast) [µM] | TGI (NCI-H226 lung) [µM] | TGI (OVCAR-3 ovarian) [µM] | TGI (RXF 393 renal) [µM] | TGI (SNB-75 CNS) [µM]
COc1ccc(Oc2nc3ccc(C(F)(F)F)cc3nc2-c2ccccc2)cc1 | > 100 | > 100 | > 100 | > 100 | > 100 | > 100 | > 100 | > 100 | > 100 | 
CCCC(CC)c1c(O)c(O)c(C(CC)CCC)c(C(CC)CCC)c1C(CC)CCC (stereo unspecified) | > 10 | > 10 | > 10 | > 10 | > 10 | > 10 | > 10 | > 10 | > 10 | 
[N-]=[N+]=NC1CC(n2cc(COCC(F)(F)F)c(=O)[nH]c2=O)OC1CO (stereo unspecified) |  |  |  | > 100 | > 100 |  |  | > 100 | > 100 | > 100
CN1C/C(=C\c2ccc(Cl)cc2)C(=O)/C(=C/c2ccc(Cl)cc2)C1 | > 100 | 0.482 |  | > 100 | 2.39 |  | 8.7 | 6.57 | 1.22 | > 100
C[C@@H]1C[C@]2(C[C@@H](C)[C@H]3C(C[C@@]4(C)CCC[C@@H]5C6=C[C@H](CCC34C)OC6=CC(=O)OC5(C)C)O2)OC1=O (stereo partly specified) |  |  | > 51.5 | > 51.5 | > 51.5 | > 51.5 |  | > 51.5 |  | 47.5
Cc1nccn1S(=O)(=O)c1ccc(Br)cc1Br | > 100 | > 100 | > 100 | > 100 | 88.7 | > 100 |  | 55.4 | 76.3 | 57.9
COc1ccccc1NC(=S)N/N=C(/C)c1ccccn1 | > 100 | 13.8 | > 100 |  | > 100 | > 100 |  |  | 23.4 | 49.2
CSc1nc(NC2OCC(O)C(O)C2O)c(N)c(=O)n1C (stereo unspecified) |  | > 100 | > 100 | > 100 | > 100 | > 100 | > 100 | > 100 | > 100 | > 100
COC(=O)C(Cc1c[nH]c2ccccc12)NC(=O)C(Cc1c[nH]c2ccccc12)NC(=O)C(Cc1c[nH]c2ccccc12)NC(=O)C(Cc1c[nH]c2ccccc12)NC(=O)OC(C)(C)C (stereo unspecified) (Boc-WWWW-OMe; configuration not given here) | > 100 | 44.2 | > 100 | > 100 |  | 0.0884 | > 100 | 40.2 |  | > 100
CC(=Nc1c2ccccc2nc2ccccc12)N(C)C | > 100 | 27.6 | > 100 | > 100 |  | 78.8 | 45.7 | 46.5 | 78.1 | 71
O=C1CCC2(CC1CCSc1ccccc1)OCCO2 (stereo unspecified) | > 100 |  | > 100 | > 100 | > 100 | > 100 | > 100 | > 100 | > 100 | > 100
C[C@H](CC[C@@H](O)C(C)(C)O)[C@H]1CC[C@@]2(C)[C@@H]3CC=C4[C@@H](CC[C@H](O)C4(C)C)[C@]3(C)C(=O)C[C@]12C | > 50 | > 50 | > 50 | > 50 | 49.2 | > 50 | > 50 | > 50 |  | 
